According to ChEMBL document CHEMBL1123035, “Synthesis and LSD-like discriminative stimulus properties in a series of N(6)-alkyl norlysergic acid N,N-diethylamide derivatives” (J Med Chem, 1985):

Key:
Rattus norvegicus [1] = assay: Number of rats scored LSD correct/number tested was reported at a dose of 3.710 uM/kg using 2-lever drug discrimination assay; complete generalisation did not occur at the highest dose used; type: ADME, organism-based; settings: in vivo
Rattus norvegicus [2] = assay: Number of rats scored LSD correct/number tested was reported at a dose of 185 nM/kg using 2-lever drug discrimination assay; 8/8; type: functional
Rattus norvegicus [3] = species: Rattus norvegicus; assay: Potency ratio was obtained using a 3 point x 3 point parallel-line bioassay for quantal data and reflects the potency relative to LSD; 1.62-0.62; type: functional
Rattus norvegicus [4] = assay: Number of rats scored LSD correct/number tested was reported at a dose of 23 nM/Kg using 2-lever drug discrimination assay; 2/8; type: functional
Rattus norvegicus [5] = species: Rattus norvegicus; assay: Effective dose at which 50% of the rats tested selected the LSD-appropriate lever was reported; 0.019-0.071; type: functional
Rattus norvegicus [6] = assay: Number of rats scored LSD correct/number tested was reported at a dose of 93 nM/Kg using 2-lever drug discrimination assay; 6/8; type: functional
Rattus norvegicus [7] = assay: Number of rats scored LSD correct/number tested was reported at a dose of 46.5 nM/Kg using 2-lever drug discrimination assay; 4/8; type: functional
Rattus norvegicus [8] = assay: Number of rats scored LSD correct/number tested was reported at a dose of 11.5 nM/Kg using 2-lever drug discrimination assay; 2/8; type: functional
Rattus norvegicus [9] = assay: Number of rats scored LSD correct/number tested was reported at a dose of 46.5 nM/kg using 2-lever drug discrimination assay; 0/8; type: functional
Rattus norvegicus [10] = assay: Number of rats scored LSD correct/number tested was reported at a dose of 93 nM/kg using 2-lever drug discrimination assay; 1/8; type: functional
Rattus norvegicus [11] = assay: Number of rats scored LSD correct/number tested was reported at a dose of 742 nM/kg using 2-lever drug discrimination assay; 7/8; type: functional
Rattus norvegicus [12] = species: Rattus norvegicus; assay: Effective dose at which 50% of the rats tested selected the LSD-appropriate lever was reported; 0.209-0.610; type: functional
Rattus norvegicus [13] = assay: Number of rats scored LSD correct/number tested was reported at a dose of 371 nM/kg using 2-lever drug discrimination assay; 3/8; type: functional
Rattus norvegicus [14] = species: Rattus norvegicus; assay: Potency ratio was obtained using a 3 point x 3 point parallel-line bioassay for quantal data and reflects the potency relative to LSD; 0.21-0.08; type: functional
Rattus norvegicus [15] = assay: Number of rats scored LSD correct/number tested was reported at a dose of 185.5 nM/kg using 2-lever drug discrimination assay; 1/8; type: functional
Rattus norvegicus [16] = species: Rattus norvegicus; assay: Potency ratio was obtained using a 3 point x 3 point parallel-line bioassay for quantal data and reflects the potency relative to LSD; 2.63-1.00; type: functional
Rattus norvegicus [17] = assay: Number of rats scored LSD correct/number tested was reported at a dose of 93 nM/Kg using 2-lever drug discrimination assay; 8/8; type: functional
Rattus norvegicus [18] = species: Rattus norvegicus; assay: Effective dose at which 50% of the rats tested selected the LSD-appropriate lever was reported; 0.010-0.041; type: functional
Rattus norvegicus [19] = assay: Number of rats scored LSD correct/number tested was reported at a dose of 5.75 nM/Kg using 2-lever drug discrimination assay; 2/8; type: functional
Rattus norvegicus [20] = assay: Number of rats scored LSD correct/number tested was reported at a dose of 23.0 nM/Kg using 2-lever drug discrimination assay; 3/8; type: functional
Rattus norvegicus [21] = assay: Number of rats scored LSD correct/number tested was reported at a dose of 11.5 nM/Kg using 2-lever drug discrimination assay; 3/8; type: functional
Rattus norvegicus [22] = assay: Number of rats scored LSD correct/number tested was reported at a dose of 46.5 nM/Kg using 2-lever drug discrimination assay; 5/8; type: functional
Rattus norvegicus [23] = assay: Number of rats scored LSD correct/number tested was reported at a dose of 23 nM/Kg using 2-lever drug discrimination assay; 1/8; type: functional
Rattus norvegicus [24] = assay: Number of rats scored LSD correct/number tested was reported at a dose of 185.5 nM/Kg using 2-lever drug discrimination assay; 5/8; type: functional
Rattus norvegicus [25] = species: Rattus norvegicus; assay: Potency ratio was obtained using a 3 point x 3 point parallel-line bioassay for quantal data and reflects the potency relative to LSD; 0.66-0.25; type: functional
Rattus norvegicus [26] = species: Rattus norvegicus; assay: Effective dose at which 50% of the rats tested selected the LSD-appropriate lever was reported; 0.052-0.186; type: functional
Rattus norvegicus [27] = assay: Number of rats scored LSD correct/number tested was reported at a dose of 46.5 nM/Kg using 2-lever drug discrimination assay; 2/8; type: functional
Rattus norvegicus [28] = assay: Number of rats scored LSD correct/number tested was reported at a dose of 371 nM/kg using 2-lever drug discrimination assay; 8/8; type: functional
Rattus norvegicus [29] = assay: Number of rats scored LSD correct/number tested was reported at a dose of 93 nM/kg using 2-lever drug discrimination assay; 3/8; type: functional
Rattus norvegicus [30] = assay: Number of rats scored LSD correct/number tested was reported at a dose of 0.742 uM/kg using 2-lever drug discrimination assay; complete generalisation did not occur at the highest dose used; type: ADME, organism-based; settings: in vivo
Rattus norvegicus [31] = assay: Number of rats scored LSD correct/number tested was reported at a dose of 5.75 nM/kg using 2-lever drug discrimination assay; 3/8; type: functional
Rattus norvegicus [32] = assay: Number of rats scored LSD correct/number tested was reported at a dose of 23 nM/kg using 2-lever drug discrimination assay; 4/8; type: functional
Rattus norvegicus [33] = assay: Number of rats scored LSD correct/number tested was reported at a dose of 93 nM/kg using 2-lever drug discrimination assay; 8/8; type: functional
Rattus norvegicus [34] = species: Rattus norvegicus; assay: Effective dose at which 50% of the rats tested selected the LSD-appropriate lever was reported; 0.006-0.027; type: functional
Rattus norvegicus [35] = assay: Number of rats scored LSD correct/number tested was reported at a dose of 11.5 nM/kg using 2-lever drug discrimination assay; 4/8; type: functional
Rattus norvegicus [36] = species: Rattus norvegicus; assay: Potency ratio was obtained using a 3 point x 3 point parallel-line bioassay for quantal data and reflects the potency relative to LSD; 3.27-1.24; type: functional
Rattus norvegicus [37] = assay: Number of rats scored LSD correct/number tested was reported at a dose of 46.5 nM/kg using 2-lever drug discrimination assay; 6/8; type: functional
Rattus norvegicus [38] = assay: Number of rats scored LSD correct/number tested was reported at a dose of 185.5 nM/Kg using 2-lever drug discrimination assay; 8/8; type: functional
Rattus norvegicus [39] = assay: Number of rats scored LSD correct/number tested was reported at a dose of 93.0 nM/Kg using 2-lever drug discrimination assay; 6/8; type: functional
Rattus norvegicus [40] = species: Rattus norvegicus; assay: Potency ratio was obtained using a 3 point x 3 point parallel-line bioassay for quantal data and reflects the potency relative to LSD; type: functional
Rattus norvegicus [41] = species: Rattus norvegicus; assay: Effective dose at which 50% of the rats tested selected the LSD-appropriate lever was reported; 0.029-0.072; type: functional
Rattus norvegicus [42] = assay: Number of rats scored LSD correct/number tested was reported at a dose of 11.5 nM/Kg using 2-lever drug discrimination assay; 0/8; type: functional

CCN(CC)C(=O)[C@@H]1C=C2c3cccc4[nH]cc(c34)C[C@H]2NC1
Activity (Rattus norvegicus [1]): 50%

CCCN1C[C@H](C(=O)N(CC)CC)C=C2c3cccc4[nH]cc(c34)C[C@H]21
Activity (Rattus norvegicus [2]): 8 | Potency ratio (Rattus norvegicus [3]): 1 | Activity (Rattus norvegicus [4]): 2 | ED50 (Rattus norvegicus [5]): 0.037 µg/kg | Activity (Rattus norvegicus [6]): 6 | Activity (Rattus norvegicus [7]): 4 | Activity (Rattus norvegicus [8]): 2

CCCCN1C[C@H](C(=O)N(CC)CC)C=C2c3cccc4[nH]cc(c34)C[C@H]21
Activity (Rattus norvegicus [9]): 0 | Activity (Rattus norvegicus [10]): 1 | Activity (Rattus norvegicus [11]): 7 | ED50 (Rattus norvegicus [12]): 0.357 µg/kg | Activity (Rattus norvegicus [13]): 3 | Potency ratio (Rattus norvegicus [14]): 0.13 | Activity (Rattus norvegicus [15]): 1

CCN(CC)C(=O)[C@@H]1C=C2c3cccc4[nH]cc(c34)C[C@H]2N(CC)C1
Potency ratio (Rattus norvegicus [16]): 1.63 | Activity (Rattus norvegicus [17]): 8 | ED50 (Rattus norvegicus [18]): 0.02 µg/kg | Activity (Rattus norvegicus [19]): 2 | Activity (Rattus norvegicus [20]): 3 | Activity (Rattus norvegicus [21]): 3 | Activity (Rattus norvegicus [22]): 5

CCN(CC)C(=O)[C@@H]1C=C2c3cccc4[nH]cc(c34)C[C@H]2N(C(C)C)C1
Activity (Rattus norvegicus [23]): 1 | Activity (Rattus norvegicus [24]): 5 | Potency ratio (Rattus norvegicus [25]): 0.41 | ED50 (Rattus norvegicus [26]): 0.1 µg/kg | Activity (Rattus norvegicus [27]): 2 | Activity (Rattus norvegicus [28]): 8 | Activity (Rattus norvegicus [29]): 3

CCN(CC)C(=O)[C@@H]1C=C2c3cccc4[nH]cc(c34)C[C@H]2N(CCc2ccccc2)C1
Activity (Rattus norvegicus [30]): 25%

C=CCN1C[C@H](C(=O)N(CC)CC)C=C2c3cccc4[nH]cc(c34)C[C@H]21
Activity (Rattus norvegicus [31]): 3 | Activity (Rattus norvegicus [32]): 4 | Activity (Rattus norvegicus [33]): 8 | ED50 (Rattus norvegicus [34]): 0.013 µmol/kg | Activity (Rattus norvegicus [35]): 4 | Potency ratio (Rattus norvegicus [36]): 2.01 | Activity (Rattus norvegicus [37]): 6

CCN(CC)C(=O)[C@@H]1C=C2c3cccc4[nH]cc(c34)C[C@H]2N(C)C1 [LYSERGIDE]
Activity (Rattus norvegicus [38]): 8 | Activity (Rattus norvegicus [39]): 6 | Activity (Rattus norvegicus [4]): 2 | Potency ratio (Rattus norvegicus [40]): 1 | ED50 (Rattus norvegicus [41]): 0.046 µg/kg | Activity (Rattus norvegicus [42]): 0 | Activity (Rattus norvegicus [7]): 4
